In patent US10709719B2, “Substituted bicyclic compounds” (BRISTOL-MYERS SQUIBB COMPANY, priority 2014, dated 2020):
“Also recorded” adds a separate entry of the source.

Legend:
[1] = target: S1P3 (EDG3) (Homo sapiens (Human), UniProt Q99500); test: Receptor [35S]GTPγS binding assay (S1P3 GTPγS), membranes from EDG3-Gal5-bla HEK293T cells; format: biochemical; details: GTPγS S1P1 versus S1P3, result in words
Experimental: (§1) Compounds were loaded in a 384 Falcon v-bottom plate (0.5 μl/well in a 11 point, 3-fold dilution). Membranes prepared from S1P1/CHO cells or EDG3-Gal5-bla HEK293T cells (EDG3 equivalent S1P3) were added to the compound plate (40 μl/well, final protein 3 μg/well) with MULTIDROP®. [^35S]GTP (1250 Ci/mmol, Perkin Elmer) was diluted in assay buffer: 20 mM HEPES, pH7.5, 10 mM MgCl2, 150 mM NaCl, 1 mM EGTA(ethylene glycol tetraacetic acid), 1 mM DTT (Dithiothreitol), 10 μM GDP, 0.1% fatty acid free BSA, and 10 μg/ml Saponin to 0.4 nM. 40 μl of the [^35S] GTP solution was added to the compound plate with a final concentration of 0.2 nM. The reaction was kept at room temperature for 45 min. At the end of incubation, all the mixtures in the compound plate were transferred to Millipore 384-well FB filter plates via the VELOCITY11® Vprep liquid handler. The filter plate was washed with water 4 times by using the manifold Embla plate washer and dried at 60° C. for 45 min. MicroScint 20 scintillation fluid (30 μl) was added to each well for counting on the Packard TOPCOUNT®.
A smaller value for GTPγS S1P EC50 value indicated greater activity for the compound in the GTPγS S1P binding assay. A larger value for the GTPγS S1P3 EC50 value indicated less activity in the GTPγS S1P3 binding assay. […]

[2] = target: S1P1 (Homo sapiens (Human), UniProt P21453); test: Receptor [35S]GTPγS binding assay (S1P1 GTPγS), membranes from S1P1/CHO cells; format: biochemical; details: result in words
Experimental: as §1, with “[^35S]GTP (1250 Ci/mmol, Perkin Elmer) was diluted in assay buffer: 20 mM HEPES, pH7.5, 10 mM MgCl2, 150 mM NaCl, 1 mM EGTA(ethylene glycol tetraacetic acid), 1 mM DTT (Dithiothreitol), 10 μM GDP, 0.1% fatty acid free BSA, and 10 μg/ml Saponin to 0.4 nM.” left out
A larger value for the GTPγS S1P3 EC50 value indicated less activity in the GTPγS S1P3 binding assay.

[3] = system: adjuvant-induced arthritis, hind paw volume; test: Rat adjuvant induced arthritis assay (AA); format: in vivo, Lewis rats; details: Lewis rat, prophylactic oral dosing regimen
Experimental: The rat adjuvant-induced arthritis model is an animal model for human rheumatoid arthritis. Male Lewis rats (150-175 g; Harlan, n=8 treatment group) were immunized at the base of the tail with 100 μl of 10 mg/ml freshly ground Mycobacterium butyricum (Difco Laboratories) in incomplete Freund's adjuvant (sigma). Animals were dosed once daily with the test article (as a solution or suspension in the vehicle) or vehicle alone (polyethylene glycol 300, “PEG300”) starting from the day of immunization. The volumes of their hind paws were measured in a water displacement plethysmometer (Ugo Basile, Italy). The baseline paw measurements were taken before onset of the disease (between day 7 to day 10). The paw measurements were then taken three times a week until the end of the study on day 20 to 21. All procedures involving animals were reviewed and approved by the Institutional Animal Care Use Committee.

[4] = system: experimental autoimmune encephalomyelitis, clinical score; test: Rat experimental autoimmune encephalomyelitis (EAE); format: in vivo, Lewis rats; details: Lewis rat, prophylactic oral dosing regimen
Experimental: Female Lewis rats (150-200 g; Harlan) were immunized at the base of the tail with 0.1 ml of a complete Freund's adjuvant emulsion containing 0.5 mg/mL guinea pig myelin basic protein (Genemed Synthesis) and 2 mg/mL Mycobacterium butyricum (Difco). Beginning on Day 7, rats (n=11/group) were scored individually at least 3×/wk according to the following scheme: [table] Average clinical scores were calculated for each treatment group on each day of assessment.

[5] = system: experimental autoimmune encephalomyelitis, clinical score; test: Mouse experimental autoimmune encephalomyelitis assay (EAE); format: in vivo; details: C57Bl/6 mice, prophylactic oral dosing regimen
[6] = system: anti-dsDNA antibodies; test: MRL/lpr lupus model: anti-dsDNA antibody titers (ELISA); format: in vivo; details: MRL/lpr mice, p.o. daily
Experimental: (§2) MRL/lpr is a spontaneous model of lupus. Male MRL/lpr mice (Jackson Laboratory) at the age of 12-14 weeks were enrolled for the study (N=12). Mice were dosed p.o. daily with vehicle (18.4% (w/v) hydroxypropyl-b-cyclodextrin in 13.8 mM citric acid) or with Example 681 at 0.06, 0.3, 1.5 mg/kg. Mice were bled every other week for anti-dsDNA antibodies measured by ELISA using pooled serum from diseased MRL/lpr mice as a positive comparator in each assay. The data were expressed in arbitrary units as a ratio of the titer of the test serum to the titer of the pooled MRL/lpr immune serum.

[7] = system: kidney histology score; test: MRL/lpr lupus model: kidney histological analysis; format: in vivo; details: MRL/lpr mice, p.o. daily
Experimental: as §2
At the end of study, one kidney was collected into 10% neutral buffered formalin and ZincTris fixatives. Fixed tissues were processed into paraffin blocks, sectioned at […], and stained with H&E or PASH. Kidney sections were graded using following criteria: Glomerular Damage: 1. Mesangial matrix thickening, cell proliferation, 2. Crescent formation, cellular deposits/casts in Bowman's space, 3. Cellular infiltration, mononuclear cells in glomerular tufts, 4. Fibrosis of Bowman's capsule. Tubular damage: 1. Infiltration of mononuclear cells, 2. Severity of tubular damage, 3. Protein casts. Tubulo-interstitial damage: 1. Fibrosis, 2. Infiltration of mononuclear cells. Each subcategory was assigned a score from 0-4, with the scores for glomerular indices representing the mean from 20 glomeruli per kidney. […]

Chain of S1P1 (P21453 whole entry): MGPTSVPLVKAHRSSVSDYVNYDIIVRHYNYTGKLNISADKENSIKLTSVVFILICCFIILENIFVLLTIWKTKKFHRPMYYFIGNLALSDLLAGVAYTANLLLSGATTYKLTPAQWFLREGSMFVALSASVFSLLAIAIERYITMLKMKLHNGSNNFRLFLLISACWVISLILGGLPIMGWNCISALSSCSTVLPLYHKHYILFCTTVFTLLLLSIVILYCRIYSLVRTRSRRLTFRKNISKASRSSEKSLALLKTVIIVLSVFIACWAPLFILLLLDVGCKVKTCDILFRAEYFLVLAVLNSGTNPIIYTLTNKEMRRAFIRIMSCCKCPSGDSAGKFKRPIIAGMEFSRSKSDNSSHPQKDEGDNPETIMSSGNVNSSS
Chain of S1P3 (EDG3) (Q99500 whole entry): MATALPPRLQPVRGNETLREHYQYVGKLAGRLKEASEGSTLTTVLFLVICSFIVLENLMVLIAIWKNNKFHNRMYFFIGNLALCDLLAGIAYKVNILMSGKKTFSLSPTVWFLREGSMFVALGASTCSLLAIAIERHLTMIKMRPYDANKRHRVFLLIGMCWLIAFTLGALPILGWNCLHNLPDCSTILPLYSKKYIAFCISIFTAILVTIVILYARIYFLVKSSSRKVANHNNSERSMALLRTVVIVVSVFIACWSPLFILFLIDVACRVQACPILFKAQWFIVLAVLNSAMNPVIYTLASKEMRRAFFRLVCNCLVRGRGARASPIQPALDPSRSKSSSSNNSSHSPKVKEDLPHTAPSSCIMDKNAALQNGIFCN

Row | Compound | activity as an agonist of S1P1 [2] | inhibition of disease progression as measured by reduced paw swelling [3] | inhibition of disease progression as measured by clinical scores [5] | also measured
1 | COCCCCCC1CCc2cc([C@H]3CC[C@](N)(COP(=O)(O)O)C3)ccc2C1 (single isomer, unassigned) [Example 689] | possessed activity as an agonist of S1P |  |  | selectivity over S1P3 [1]: selective over S1P3
2 | COc1ccccc1CCC1CCc2cc([C@H]3CC[C@](N)(COP(=O)(O)O)C3)ccc2C1 (single isomer, unassigned) [Example 697] | possessed activity as an agonist of S1P1 |  |  | 
3 | COCCCCC[C@H]1CCc2cc([C@H]3CC[C@](N)(CO)C3)ccc2C1 [Example 672, ((1R,3S)-1-amino-3-((S)-6-(5-methoxypentyl)-5,6,7,8-tetrahydronaphthalen-2-yl)cyclopentyl)methanol] |  | showed inhibition of disease progression |  | 
4 | CCOCCC[C@@H]1CCc2cc([C@H]3CC[C@](N)(CO)C3)ccc2C1 [Example 679, ((1R,3S)-1-amino-3-((S)-6-(3-ethoxypropyl)-5,6,7,8-tetrahydronaphthalen-2-yl)cyclopentyl)methanol] |  | showed inhibition of disease progression | showed inhibition of disease progression; also recorded: inhibit disease progression | inhibition of disease progression as measured by reduced clinical scores [4]: showed inhibition of disease progression
5 | COc1ccccc1CC[C@@H]1CCc2cc([C@H]3CC[C@](N)(CO)C3)ccc2C1 [Example 681, ((1R,3S)-1-amino-3-((S)-6-(2-methoxyphenethyl)-5,6,7,8-tetrahydronaphthalen-2-yl)cyclopentyl)methanol] |  |  | showed inhibition of disease progression; also recorded: inhibit disease progression | inhibition of disease progression as measured by anti-dsDNA titers [6]: showed inhibition of disease progression; inhibition of disease progression as measured by kidney histology [7]: showed inhibition of disease progression
